PMC3814616, “BRAF inhibitors suppress apoptosis through off-target inhibition of JNK signaling” (eLife, 2013)
pIC50: −log10 of the molar value.

Assays:
BLK = target: T1, BLK (Homo sapiens, UniProt P51451); test: Quantitative competitive binding assay (KINOMEscan); details: for pIC50: estimated Kd, averaged pointwise estimates, transformed Hill equation, read-out: Calculated estimate of IC50; for remaining binding at 0.05 µM: read-out: Percent control (50 nM); for remaining binding at 0.2 µM: read-out: Percent control (200 nM); for remaining binding at 1 µM: read-out: Percent control (1000 nM); for remaining binding at 10 µM: read-out: Percent control (10 μM)
T1 construct: purchased KINOMEscan (DiscoveRx), San Diego, CA

MAP3K15 = target: T2, MAP3K15 (Homo sapiens, UniProt Q6ZN16); test: as above; details: for remaining binding at 0.05 µM: read-out: Percent control (50 nM); for remaining binding at 0.2 µM: read-out: Percent control (200 nM); for remaining binding at 1 µM: read-out: Percent control (1000 nM); for remaining binding at 10 µM: read-out: Percent control (10 μM)
T2 construct: purchased KINOMEscan (DiscoveRx), San Diego, CA
T2 sequence (Q6ZN16 1-1313): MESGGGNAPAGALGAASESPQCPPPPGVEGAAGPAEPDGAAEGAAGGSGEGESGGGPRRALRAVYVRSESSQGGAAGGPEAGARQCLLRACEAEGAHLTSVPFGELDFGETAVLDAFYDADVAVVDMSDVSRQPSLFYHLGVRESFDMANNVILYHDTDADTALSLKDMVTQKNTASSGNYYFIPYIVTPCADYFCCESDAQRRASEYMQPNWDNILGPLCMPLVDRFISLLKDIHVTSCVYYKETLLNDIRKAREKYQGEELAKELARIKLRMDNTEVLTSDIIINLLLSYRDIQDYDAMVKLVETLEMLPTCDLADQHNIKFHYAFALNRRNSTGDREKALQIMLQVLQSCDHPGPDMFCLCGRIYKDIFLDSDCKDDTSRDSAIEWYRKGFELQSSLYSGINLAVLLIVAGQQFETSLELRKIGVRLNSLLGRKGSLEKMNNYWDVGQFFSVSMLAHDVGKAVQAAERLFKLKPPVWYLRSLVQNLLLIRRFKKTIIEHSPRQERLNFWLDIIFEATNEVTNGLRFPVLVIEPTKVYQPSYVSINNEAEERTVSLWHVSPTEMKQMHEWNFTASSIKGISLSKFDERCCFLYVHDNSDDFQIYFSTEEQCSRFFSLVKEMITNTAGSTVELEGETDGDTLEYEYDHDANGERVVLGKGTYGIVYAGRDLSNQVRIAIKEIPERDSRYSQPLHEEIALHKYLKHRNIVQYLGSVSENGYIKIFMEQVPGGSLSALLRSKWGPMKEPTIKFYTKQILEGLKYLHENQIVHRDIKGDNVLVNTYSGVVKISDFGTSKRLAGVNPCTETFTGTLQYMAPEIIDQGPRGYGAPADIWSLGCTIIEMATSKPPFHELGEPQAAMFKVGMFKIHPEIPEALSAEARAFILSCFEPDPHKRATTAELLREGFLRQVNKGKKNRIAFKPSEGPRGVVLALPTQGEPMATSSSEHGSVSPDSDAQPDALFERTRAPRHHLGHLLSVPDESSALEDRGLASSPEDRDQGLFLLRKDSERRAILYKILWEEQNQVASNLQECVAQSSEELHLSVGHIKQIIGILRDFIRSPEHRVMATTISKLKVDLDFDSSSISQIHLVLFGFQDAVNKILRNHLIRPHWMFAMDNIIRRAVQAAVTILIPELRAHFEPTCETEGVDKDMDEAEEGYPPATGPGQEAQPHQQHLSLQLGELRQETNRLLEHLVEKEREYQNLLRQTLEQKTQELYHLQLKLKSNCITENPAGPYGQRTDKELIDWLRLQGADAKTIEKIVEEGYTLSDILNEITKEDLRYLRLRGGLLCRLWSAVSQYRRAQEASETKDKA

MAP4K4 = target: T3, MAP4K4 (Homo sapiens, UniProt O95819); test: as above; details: for remaining binding at 0.05 µM: read-out: Percent control (50 nM); for remaining binding at 0.2 µM: read-out: Percent control (200 nM); for remaining binding at 10 µM: read-out: Percent control (10 μM)
T3 construct: purchased KINOMEscan (DiscoveRx), San Diego, CA

MEK3 (MAP2K3) = target: T4, MEK3 (MAP2K3) (Homo sapiens, UniProt P46734); test: as above; details: for remaining binding at 0.05 µM: read-out: Percent control (50 nM); for remaining binding at 0.2 µM: read-out: Percent control (200 nM); for remaining binding at 1 µM: read-out: Percent control (1000 nM); for remaining binding at 10 µM: read-out: Percent control (10 μM)
T4 construct: purchased KINOMEscan (DiscoveRx), San Diego, CA

STK39 = target: T5, STK39 (Homo sapiens, UniProt Q9UEW8); test: as above; details: for remaining binding at 0.05 µM: read-out: Percent control (50 nM); for remaining binding at 0.2 µM: read-out: Percent control (200 nM); for remaining binding at 1 µM: read-out: Percent control (1000 nM); for remaining binding at 10 µM: read-out: Percent control (10 μM)
T5 construct: purchased KINOMEscan (DiscoveRx), San Diego, CA

TAOK1 = target: T6, TAOK1 (Homo sapiens, UniProt Q7L7X3); test: as above; details: for remaining binding at 0.2 µM: read-out: Percent control (200 nM); for remaining binding at 1 µM: read-out: Percent control (1000 nM); for remaining binding at 10 µM: read-out: Percent control (10 μM)
T6 construct: purchased KINOMEscan (DiscoveRx), San Diego, CA
T6 sequence (Q7L7X3 1-1001): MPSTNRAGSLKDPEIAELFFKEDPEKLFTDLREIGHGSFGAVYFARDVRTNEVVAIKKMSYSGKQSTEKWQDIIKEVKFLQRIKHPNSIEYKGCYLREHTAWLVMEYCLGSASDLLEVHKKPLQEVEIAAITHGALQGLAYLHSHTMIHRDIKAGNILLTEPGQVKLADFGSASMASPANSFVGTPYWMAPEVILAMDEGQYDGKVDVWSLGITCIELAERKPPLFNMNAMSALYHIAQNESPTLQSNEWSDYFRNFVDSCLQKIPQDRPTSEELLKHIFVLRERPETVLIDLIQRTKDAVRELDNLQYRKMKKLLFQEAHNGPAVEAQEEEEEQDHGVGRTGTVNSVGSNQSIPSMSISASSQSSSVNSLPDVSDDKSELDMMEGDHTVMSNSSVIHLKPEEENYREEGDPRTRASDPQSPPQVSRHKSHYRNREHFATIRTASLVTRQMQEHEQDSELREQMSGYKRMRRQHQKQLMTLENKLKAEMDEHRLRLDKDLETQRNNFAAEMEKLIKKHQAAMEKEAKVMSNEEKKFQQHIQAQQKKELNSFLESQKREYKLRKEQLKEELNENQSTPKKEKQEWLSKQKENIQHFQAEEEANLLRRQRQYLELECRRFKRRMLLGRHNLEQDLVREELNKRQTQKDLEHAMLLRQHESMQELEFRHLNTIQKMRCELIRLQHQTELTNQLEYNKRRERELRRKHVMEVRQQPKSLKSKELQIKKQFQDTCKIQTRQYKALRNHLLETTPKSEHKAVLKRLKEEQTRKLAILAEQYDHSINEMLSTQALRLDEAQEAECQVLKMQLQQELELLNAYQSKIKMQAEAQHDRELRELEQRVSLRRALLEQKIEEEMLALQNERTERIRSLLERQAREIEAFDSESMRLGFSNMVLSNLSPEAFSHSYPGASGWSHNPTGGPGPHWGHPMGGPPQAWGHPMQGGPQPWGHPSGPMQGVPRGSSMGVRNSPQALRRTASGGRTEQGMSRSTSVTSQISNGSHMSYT

TAOK3 = target: T7, TAOK3 (Homo sapiens, UniProt Q9H2K8); test: as above; details: for remaining binding at 0.05 µM: read-out: Percent control (50 nM); for remaining binding at 0.2 µM: read-out: Percent control (200 nM); for remaining binding at 1 µM: read-out: Percent control (1000 nM); for remaining binding at 10 µM: read-out: Percent control (10 μM)
T7 construct: purchased KINOMEscan (DiscoveRx), San Diego, CA

NOXA = test: Western blot, UV-induced NOXA expression; format: cell-based, human; details: 1 μM
[1] = estimated Kd, averaged pointwise estimates, transformed Hill equation, read-out: Calculated estimate of IC50

T7 sequence (Q9H2K8 whole entry): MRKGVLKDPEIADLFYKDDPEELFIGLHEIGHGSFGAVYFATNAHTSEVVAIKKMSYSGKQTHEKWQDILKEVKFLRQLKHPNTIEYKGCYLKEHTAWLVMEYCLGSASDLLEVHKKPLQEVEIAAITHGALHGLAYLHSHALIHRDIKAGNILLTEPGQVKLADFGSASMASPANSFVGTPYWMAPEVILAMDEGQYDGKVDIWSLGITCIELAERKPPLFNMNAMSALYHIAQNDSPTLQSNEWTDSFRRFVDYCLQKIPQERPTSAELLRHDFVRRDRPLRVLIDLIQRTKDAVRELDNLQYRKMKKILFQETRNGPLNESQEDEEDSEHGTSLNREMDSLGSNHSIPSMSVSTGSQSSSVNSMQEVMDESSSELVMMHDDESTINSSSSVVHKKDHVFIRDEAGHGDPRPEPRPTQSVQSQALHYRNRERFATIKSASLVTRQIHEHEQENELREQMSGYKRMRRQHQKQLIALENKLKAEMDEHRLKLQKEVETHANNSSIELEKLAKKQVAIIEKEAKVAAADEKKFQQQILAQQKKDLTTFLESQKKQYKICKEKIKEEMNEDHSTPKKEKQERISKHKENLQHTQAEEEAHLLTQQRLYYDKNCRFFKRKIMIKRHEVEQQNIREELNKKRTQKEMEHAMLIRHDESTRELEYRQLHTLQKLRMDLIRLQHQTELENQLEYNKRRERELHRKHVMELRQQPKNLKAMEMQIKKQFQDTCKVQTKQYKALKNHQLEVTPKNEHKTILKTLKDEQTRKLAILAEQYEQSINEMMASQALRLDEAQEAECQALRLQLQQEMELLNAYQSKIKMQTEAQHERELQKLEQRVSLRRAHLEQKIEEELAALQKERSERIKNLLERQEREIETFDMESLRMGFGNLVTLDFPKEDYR
T3 sequence (O95819 whole entry): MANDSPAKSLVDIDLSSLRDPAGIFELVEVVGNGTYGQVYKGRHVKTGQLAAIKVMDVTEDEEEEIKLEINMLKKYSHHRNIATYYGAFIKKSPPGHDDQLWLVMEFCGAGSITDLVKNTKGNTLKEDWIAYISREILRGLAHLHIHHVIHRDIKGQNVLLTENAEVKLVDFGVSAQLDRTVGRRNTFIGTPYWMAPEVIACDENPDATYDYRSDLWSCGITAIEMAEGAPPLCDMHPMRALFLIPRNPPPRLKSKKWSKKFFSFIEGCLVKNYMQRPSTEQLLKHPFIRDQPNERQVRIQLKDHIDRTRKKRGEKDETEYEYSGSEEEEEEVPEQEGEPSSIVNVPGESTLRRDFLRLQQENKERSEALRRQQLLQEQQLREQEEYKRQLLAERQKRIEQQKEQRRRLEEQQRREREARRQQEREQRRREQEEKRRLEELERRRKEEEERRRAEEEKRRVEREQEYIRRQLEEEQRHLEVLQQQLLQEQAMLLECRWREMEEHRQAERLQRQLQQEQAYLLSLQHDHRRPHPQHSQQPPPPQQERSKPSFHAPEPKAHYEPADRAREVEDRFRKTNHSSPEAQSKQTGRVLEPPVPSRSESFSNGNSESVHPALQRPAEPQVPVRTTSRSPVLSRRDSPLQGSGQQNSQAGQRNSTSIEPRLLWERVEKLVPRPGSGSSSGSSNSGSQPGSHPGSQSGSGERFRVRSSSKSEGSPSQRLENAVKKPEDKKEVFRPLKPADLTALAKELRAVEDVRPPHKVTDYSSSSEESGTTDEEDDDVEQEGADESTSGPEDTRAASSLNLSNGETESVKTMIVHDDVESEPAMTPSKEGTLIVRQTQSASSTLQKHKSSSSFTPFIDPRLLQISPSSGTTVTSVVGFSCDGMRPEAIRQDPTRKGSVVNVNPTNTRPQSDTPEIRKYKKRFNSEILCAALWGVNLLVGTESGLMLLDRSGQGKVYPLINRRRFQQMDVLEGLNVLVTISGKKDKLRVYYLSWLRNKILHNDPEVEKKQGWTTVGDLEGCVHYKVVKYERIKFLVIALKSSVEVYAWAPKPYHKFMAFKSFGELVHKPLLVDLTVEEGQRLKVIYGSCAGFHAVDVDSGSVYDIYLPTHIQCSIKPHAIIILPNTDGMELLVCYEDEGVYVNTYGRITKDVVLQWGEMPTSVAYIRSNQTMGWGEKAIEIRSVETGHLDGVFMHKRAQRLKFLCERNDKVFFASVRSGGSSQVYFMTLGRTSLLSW
T4 sequence (P46734 whole entry): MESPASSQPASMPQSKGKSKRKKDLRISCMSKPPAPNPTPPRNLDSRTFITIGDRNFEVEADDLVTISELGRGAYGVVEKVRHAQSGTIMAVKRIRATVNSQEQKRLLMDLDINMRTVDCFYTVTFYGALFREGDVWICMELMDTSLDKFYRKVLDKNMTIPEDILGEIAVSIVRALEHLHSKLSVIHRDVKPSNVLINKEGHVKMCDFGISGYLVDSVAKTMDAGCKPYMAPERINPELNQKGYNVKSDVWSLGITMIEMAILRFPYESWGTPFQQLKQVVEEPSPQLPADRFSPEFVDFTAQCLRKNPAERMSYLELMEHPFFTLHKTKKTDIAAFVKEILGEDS
T1 sequence (P51451 whole entry): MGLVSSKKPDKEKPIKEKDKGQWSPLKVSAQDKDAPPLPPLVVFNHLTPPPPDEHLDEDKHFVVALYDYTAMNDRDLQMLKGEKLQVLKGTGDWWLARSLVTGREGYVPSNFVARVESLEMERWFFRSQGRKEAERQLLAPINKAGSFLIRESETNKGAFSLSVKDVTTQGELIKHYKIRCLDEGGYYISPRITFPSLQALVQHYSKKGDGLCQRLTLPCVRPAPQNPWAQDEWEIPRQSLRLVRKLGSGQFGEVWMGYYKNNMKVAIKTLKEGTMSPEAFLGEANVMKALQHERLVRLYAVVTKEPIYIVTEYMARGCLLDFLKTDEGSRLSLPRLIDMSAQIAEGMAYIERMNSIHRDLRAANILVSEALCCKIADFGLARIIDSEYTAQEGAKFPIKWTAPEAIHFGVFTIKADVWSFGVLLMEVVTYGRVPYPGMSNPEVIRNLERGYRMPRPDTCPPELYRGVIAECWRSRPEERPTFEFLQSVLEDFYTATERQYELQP

Compound | pIC50 (BLK) | remaining binding at 0.05 µM (BLK) [%] | remaining binding at 0.2 µM (BLK) [%] | remaining binding at 1 µM (BLK) [%] | remaining binding at 10 µM (BLK) [%] | remaining binding at 0.05 µM (MAP3K15) [%] | remaining binding at 0.2 µM (MAP3K15) [%] | remaining binding at 1 µM (MAP3K15) [%] | remaining binding at 10 µM (MAP3K15) [%] | remaining binding at 0.05 µM (MAP4K4) [%] | remaining binding at 0.2 µM (MAP4K4) [%] | remaining binding at 10 µM (MAP4K4) [%] | remaining binding at 0.05 µM (MEK3 (MAP2K3)) [%] | remaining binding at 0.2 µM (MEK3 (MAP2K3)) [%] | remaining binding at 1 µM (MEK3 (MAP2K3)) [%] | remaining binding at 10 µM (MEK3 (MAP2K3)) [%] | remaining binding at 0.05 µM (STK39) [%] | remaining binding at 0.2 µM (STK39) [%] | remaining binding at 1 µM (STK39) [%] | remaining binding at 10 µM (STK39) [%] | other results
CCCS(=O)(=O)Nc1ccc(F)c(C(=O)c2c[nH]c3ncc(-c4ccc(Cl)cc4)cc23)c1F [vemurafenib] | 6.29 | 96 | 66 | 30 | 0.55 | 84 | 100 | 84 | 91 | 96 | 92 | 23 | 100 | 96 | 98 | 54 | 100 | 100 | 97 | 66 | pIC50 (MAP4K4; [1]): 5.55; remaining binding at 0.2 µM (TAOK1): 100%; remaining binding at 1 µM (TAOK1): 97%; remaining binding at 10 µM (TAOK1): 79%; pIC50 (TAOK3; [1]): 4.81; remaining binding at 0.05 µM (TAOK3): 92%; remaining binding at 0.2 µM (TAOK3): 98%; remaining binding at 1 µM (TAOK3): 92%; remaining binding at 10 µM (TAOK3): 80%; NOXA induction at 24 hr post-UV irradiation (NOXA; NHEK): diminished
CCCS(=O)(=O)Nc1ccc(F)c(C(=O)c2c[nH]c3ncc(Cl)cc23)c1F [PLX4720] | 6.35 | 91 | 78 | 32 | 1 | 94 | 97 | 91 | 59 | 92 | 99 | 46 | 100 | 100 | 100 | 64 | 100 | 100 | 100 | 59 | remaining binding at 1 µM (MAP4K4; read-out: Percent control (1000 nM)): 100%; pIC50 (TAOK1; [1]): 5.12; remaining binding at 0.05 µM (TAOK1; read-out: Percent control (50 nM)): 87%; remaining binding at 0.2 µM (TAOK1): 94%; remaining binding at 1 µM (TAOK1): 89%; remaining binding at 10 µM (TAOK1): 65%; remaining binding at 0.05 µM (TAOK3): 100%; remaining binding at 0.2 µM (TAOK3): 98%; remaining binding at 1 µM (TAOK3): 96%; remaining binding at 10 µM (TAOK3): 58%; UV-induced NOXA expression (NOXA; cSCC and HaCaT cell lines): suppressed
